Earlier results as cited in patent US11612595B2, “Compositions and methods for treating rheumatoid arthritis” (Generos Biopharma Ltd., priority 2017, dated 2023).

Columns and labels:
[1] = target: T1, SH2 domain of STAT1 (Homo sapiens, UniProt P42224); settings: read-out: IC50 towards the SH2 domain of STAT1; cited from earlier work
T1 sequence (P42224 1-750): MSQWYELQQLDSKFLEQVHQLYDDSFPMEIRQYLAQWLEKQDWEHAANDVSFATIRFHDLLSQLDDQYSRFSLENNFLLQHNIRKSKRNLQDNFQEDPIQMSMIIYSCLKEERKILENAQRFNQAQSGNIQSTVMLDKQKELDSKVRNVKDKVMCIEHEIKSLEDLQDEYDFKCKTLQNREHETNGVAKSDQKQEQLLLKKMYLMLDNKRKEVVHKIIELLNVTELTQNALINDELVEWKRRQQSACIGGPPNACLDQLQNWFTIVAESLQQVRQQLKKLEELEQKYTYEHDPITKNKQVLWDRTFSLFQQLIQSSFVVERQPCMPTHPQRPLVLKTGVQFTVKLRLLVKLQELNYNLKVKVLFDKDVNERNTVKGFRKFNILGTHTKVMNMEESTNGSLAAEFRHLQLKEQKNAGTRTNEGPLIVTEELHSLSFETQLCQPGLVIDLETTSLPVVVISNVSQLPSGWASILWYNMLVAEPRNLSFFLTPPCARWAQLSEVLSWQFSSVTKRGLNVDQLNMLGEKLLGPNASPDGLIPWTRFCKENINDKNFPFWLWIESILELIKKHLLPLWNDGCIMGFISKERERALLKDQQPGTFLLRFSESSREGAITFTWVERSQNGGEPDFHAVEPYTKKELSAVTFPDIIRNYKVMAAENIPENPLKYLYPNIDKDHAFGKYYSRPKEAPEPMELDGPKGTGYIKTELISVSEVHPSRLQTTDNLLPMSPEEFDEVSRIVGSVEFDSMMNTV

[2] = target: T2, STAT5 (Homo sapiens, UniProt P42229+P51692); design: endogenous in cells; settings: Daudi cells; cited from earlier work
T2 sequence (P42229 1-794): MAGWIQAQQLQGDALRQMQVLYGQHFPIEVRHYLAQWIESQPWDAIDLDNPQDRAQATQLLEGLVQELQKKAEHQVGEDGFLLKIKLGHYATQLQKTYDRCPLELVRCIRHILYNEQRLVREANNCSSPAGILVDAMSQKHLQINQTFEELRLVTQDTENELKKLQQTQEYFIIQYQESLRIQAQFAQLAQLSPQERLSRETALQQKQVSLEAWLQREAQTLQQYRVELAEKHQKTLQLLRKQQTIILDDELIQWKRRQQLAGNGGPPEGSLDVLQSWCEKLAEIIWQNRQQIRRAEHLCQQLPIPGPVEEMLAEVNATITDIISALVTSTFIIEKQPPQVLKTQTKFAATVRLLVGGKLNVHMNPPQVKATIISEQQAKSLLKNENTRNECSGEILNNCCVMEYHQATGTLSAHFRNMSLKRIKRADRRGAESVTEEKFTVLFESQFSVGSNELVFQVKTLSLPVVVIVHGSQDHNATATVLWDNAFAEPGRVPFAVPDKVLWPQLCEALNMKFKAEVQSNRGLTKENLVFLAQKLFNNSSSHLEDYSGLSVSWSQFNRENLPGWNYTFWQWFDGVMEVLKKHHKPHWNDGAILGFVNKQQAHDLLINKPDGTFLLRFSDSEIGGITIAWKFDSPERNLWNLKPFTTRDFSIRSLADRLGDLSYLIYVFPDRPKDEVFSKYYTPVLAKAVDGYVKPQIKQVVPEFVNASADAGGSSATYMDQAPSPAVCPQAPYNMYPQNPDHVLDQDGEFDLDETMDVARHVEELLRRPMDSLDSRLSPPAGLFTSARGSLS
T2 sequence (P51692 1-787): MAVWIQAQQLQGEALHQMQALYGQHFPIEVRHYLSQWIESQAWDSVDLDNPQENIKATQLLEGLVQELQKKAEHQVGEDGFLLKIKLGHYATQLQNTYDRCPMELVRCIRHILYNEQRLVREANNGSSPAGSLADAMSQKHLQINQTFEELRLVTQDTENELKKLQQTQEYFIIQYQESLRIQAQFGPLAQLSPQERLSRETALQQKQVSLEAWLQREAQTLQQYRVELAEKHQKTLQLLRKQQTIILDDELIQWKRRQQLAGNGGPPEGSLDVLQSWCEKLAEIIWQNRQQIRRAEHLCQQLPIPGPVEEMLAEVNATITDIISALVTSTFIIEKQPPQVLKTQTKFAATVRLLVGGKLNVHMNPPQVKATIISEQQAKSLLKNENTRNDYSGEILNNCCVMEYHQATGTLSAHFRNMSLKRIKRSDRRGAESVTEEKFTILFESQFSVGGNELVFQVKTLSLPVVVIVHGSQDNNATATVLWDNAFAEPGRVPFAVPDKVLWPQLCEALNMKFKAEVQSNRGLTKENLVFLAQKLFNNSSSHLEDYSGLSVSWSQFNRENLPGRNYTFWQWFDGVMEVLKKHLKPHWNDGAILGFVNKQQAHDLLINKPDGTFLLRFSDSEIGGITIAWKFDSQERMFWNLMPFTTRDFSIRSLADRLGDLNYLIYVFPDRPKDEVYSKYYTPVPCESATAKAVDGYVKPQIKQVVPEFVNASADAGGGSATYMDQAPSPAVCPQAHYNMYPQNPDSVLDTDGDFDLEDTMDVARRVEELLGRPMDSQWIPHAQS

[3] = target: T2, STAT5; design: in Bcr-Abl+ K562 and KU812 cultures; endogenous in cells; host or cells: K562 and KU812 cells; settings: 5 to 10 μM for 3 h; Bcr-Abl+ K562 and KU812 cultures; cited from earlier work
[4] = target: T2, STAT5; design: in Bcr-Abl+ K562 and KU812 cultures; endogenous in cells; host or cells: K562 and KU812 cells; settings: cited from earlier work
[5] = target: STAT3 (Homo sapiens, UniProt P40763); design: IFNα-stimulated STAT1 phosphorylation or LIF-stimulated STAT3 phosphorylation in K562 cells; endogenous in cells; host or cells: K562 cells; settings: K562 cells, 10 μM 1 h pretreatment; cited from earlier work
STAT3, sequence (P40763 whole entry): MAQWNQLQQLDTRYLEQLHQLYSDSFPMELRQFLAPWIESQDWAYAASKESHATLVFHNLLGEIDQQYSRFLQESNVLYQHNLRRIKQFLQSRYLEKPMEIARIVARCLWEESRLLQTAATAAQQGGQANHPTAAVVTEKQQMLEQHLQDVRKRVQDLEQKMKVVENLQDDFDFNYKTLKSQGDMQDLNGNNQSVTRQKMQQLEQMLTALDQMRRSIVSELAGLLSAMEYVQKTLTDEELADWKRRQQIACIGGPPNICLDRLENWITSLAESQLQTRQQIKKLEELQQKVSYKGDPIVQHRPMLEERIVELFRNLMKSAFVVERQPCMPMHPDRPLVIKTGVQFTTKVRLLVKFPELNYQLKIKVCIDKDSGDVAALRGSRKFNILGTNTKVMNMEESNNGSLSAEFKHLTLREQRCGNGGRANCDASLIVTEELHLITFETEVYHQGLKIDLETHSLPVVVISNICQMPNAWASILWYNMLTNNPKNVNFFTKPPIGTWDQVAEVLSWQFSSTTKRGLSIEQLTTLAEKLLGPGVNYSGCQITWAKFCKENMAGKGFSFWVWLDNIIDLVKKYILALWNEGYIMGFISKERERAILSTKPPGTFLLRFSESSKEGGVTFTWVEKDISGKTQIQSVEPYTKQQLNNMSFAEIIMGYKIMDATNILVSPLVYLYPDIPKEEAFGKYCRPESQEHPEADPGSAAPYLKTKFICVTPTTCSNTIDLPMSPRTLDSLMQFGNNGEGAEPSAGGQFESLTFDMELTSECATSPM

| Structure (SMILES) | IC50 [1] [µM] | IFN-α-stimulated STAT5 tyrosine phosphorylation [2] | constitutive STAT5 Tyr694 phosphorylation [3] | STAT5 transcription activity ([4]; 5 μM for 18 h, Bcr-Abl+ K562 and KU812 cultures) | expression of STAT5 target genes ([4]; CML cell lines) | LIF-stimulated STAT3 phosphorylation [5] |
| --- | --- | --- | --- | --- | --- | --- |
| O=C(N/N=C/c1coc2ccccc2c1=O)c1cccnc1 [nicotinohydrazide, N′-((4-Oxo-4H-chromen-3-yl)methylene)nicotinohydrazide] | > 500 | inhibit |  |  |  |  |
| O=c1[nH]c2ccccc2n1C1CCN(CCCC(c2ccc(F)cc2)c2ccc(F)cc2)CC1 [pimozide, 1-[1-[4,4-bis(4-fluorophenyl)butyl]-4-piperidinyl]-1,3-dihydro-2H-benzimidazole-2-one] |  |  | inhibits | inhibits | decreased | little activity |
